Measured values taken from patent US20260272878A1, “ADAR1 INHIBITORS AND USES THEREOF” (THE WISTAR INSTITUTE OF ANATOMY AND BIOLOGY, priority 2023, published 2026).

Assays:
ADAR = ADAR (Homo sapiens, UniProt P55265); conditions: literature study; cited from earlier work
ADAR1p110-WT = molecular target: T1, ADAR1p110-WT (Homo sapiens, UniProt P55265); experiment: Biacore SPR binding to ADAR1p110-WT
T1 construct: made in house; host or cells: Sf9 cells (baculovirus)
T1 sequence (P55265 1-931 isoform P55265-5): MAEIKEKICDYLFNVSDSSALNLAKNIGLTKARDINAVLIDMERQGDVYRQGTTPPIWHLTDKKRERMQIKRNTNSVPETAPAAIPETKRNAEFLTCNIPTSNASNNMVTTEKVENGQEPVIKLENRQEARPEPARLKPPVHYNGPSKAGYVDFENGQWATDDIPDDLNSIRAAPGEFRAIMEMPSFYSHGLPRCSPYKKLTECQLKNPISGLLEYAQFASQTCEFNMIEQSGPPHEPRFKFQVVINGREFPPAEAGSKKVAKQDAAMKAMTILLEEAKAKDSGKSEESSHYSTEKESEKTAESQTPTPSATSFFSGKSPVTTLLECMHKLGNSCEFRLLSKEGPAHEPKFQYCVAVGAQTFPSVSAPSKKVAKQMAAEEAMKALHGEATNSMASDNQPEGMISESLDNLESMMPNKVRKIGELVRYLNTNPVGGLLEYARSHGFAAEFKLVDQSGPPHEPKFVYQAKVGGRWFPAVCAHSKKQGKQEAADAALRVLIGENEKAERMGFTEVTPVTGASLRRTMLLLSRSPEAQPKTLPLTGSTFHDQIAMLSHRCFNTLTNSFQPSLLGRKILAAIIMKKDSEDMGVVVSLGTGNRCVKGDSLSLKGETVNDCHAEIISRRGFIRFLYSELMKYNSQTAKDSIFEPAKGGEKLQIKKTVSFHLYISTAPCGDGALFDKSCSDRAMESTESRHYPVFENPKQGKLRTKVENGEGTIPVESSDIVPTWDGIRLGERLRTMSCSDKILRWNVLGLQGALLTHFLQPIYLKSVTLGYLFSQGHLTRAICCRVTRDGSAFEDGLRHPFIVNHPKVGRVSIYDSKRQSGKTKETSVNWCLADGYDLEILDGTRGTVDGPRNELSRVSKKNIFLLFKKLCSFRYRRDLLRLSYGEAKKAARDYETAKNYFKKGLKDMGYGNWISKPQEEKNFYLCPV
Description: FIGS. 5A-5D show Biacore SPR analysis for binding of ADAR1i to ADAR1p110. (FIG. 5A) SPR analysis for binding kinetics of 8 compounds to ADAR1p110-WT. ADAR1 inhibition positive (ADAR1i-13, ADAR1i-120, ADAR1i-124) and negative compounds. (FIG. 5B, FIG. 5C) […] of SPR analysis for binding of ADAR1i-13 and ADAR1i-124 to ADAR1p110-WT and ADAR1p110-E912A as well as negative control proteins, GAPDH and HuR, are shown. […] ADAR1-E912, equivalent of ADAR2 E396, is located in the catalytic center.
No complete 3-D structure of ADAR1 is currently available. […] The glutamate E912 and E396 in ADAR1 and ADAR2, respectively, plays an important proton transfer function during hydrolytic deamination reaction (42, 43).

HeLa-Nluc-edit cells = experiment: First screen: FFL activity (cell viability/apoptosis) in reporter HeLa cells; conditions: FIG. 2C

ADAR, sequence (P55265 whole entry, species assumed): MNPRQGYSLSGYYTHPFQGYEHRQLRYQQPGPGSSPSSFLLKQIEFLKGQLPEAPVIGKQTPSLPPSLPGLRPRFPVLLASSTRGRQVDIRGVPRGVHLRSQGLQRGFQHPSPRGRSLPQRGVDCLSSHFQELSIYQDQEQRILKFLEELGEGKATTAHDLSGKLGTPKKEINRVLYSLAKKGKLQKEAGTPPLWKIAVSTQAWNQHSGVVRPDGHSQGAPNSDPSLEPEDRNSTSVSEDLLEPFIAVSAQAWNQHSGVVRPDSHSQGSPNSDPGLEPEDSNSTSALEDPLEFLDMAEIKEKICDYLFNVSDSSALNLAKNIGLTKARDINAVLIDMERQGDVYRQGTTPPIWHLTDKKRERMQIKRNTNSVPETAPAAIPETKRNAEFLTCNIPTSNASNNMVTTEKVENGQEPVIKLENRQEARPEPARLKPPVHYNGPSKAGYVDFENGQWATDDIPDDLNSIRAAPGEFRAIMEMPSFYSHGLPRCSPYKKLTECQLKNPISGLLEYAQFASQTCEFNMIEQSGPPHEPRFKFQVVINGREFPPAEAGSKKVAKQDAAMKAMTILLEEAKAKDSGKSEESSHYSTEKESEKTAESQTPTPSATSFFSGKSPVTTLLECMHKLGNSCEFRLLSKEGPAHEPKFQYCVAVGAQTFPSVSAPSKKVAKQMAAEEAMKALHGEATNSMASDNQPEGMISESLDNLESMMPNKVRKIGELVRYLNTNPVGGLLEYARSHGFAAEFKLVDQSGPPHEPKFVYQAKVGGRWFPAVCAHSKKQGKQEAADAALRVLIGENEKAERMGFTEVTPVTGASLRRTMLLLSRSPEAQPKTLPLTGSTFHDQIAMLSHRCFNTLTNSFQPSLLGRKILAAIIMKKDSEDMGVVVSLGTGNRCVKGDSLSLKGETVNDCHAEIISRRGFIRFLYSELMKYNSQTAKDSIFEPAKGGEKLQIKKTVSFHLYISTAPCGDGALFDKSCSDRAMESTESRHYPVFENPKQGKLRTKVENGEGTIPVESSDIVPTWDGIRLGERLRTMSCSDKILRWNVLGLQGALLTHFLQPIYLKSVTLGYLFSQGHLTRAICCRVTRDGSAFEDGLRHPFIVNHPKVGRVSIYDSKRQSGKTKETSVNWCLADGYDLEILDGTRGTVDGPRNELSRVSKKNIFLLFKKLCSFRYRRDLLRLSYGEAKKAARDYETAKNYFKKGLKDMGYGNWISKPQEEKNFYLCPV

Row | Binding to ADAR1p110-WT (ADAR1p110-WT) | Structure (SMILES) | other results
1 | did not bind | N#Cc1ccc(NC(=O)c2nc3ccccc3[nH]2)cc1 [ADAR1i-122] | 
2 | did not bind | N#Cc1ccc(NC(=O)c2cc3ccccc3s2)cc1 [ADAR1i-125] | 
3 | did not bind | N#Cc1ccc(NC(=O)c2[nH]c3ccccc3c2Cl)cc1 [ADAR1i-126] | 

Further lines, the compound ahead of its results:

Row | Structure (SMILES) | Binding to ADAR1p110-WT (ADAR1p110-WT) | other results
4 | Nc1ncnc2c1nnn2[C@@H]1O[C@H](CO)[C@@H](O)[C@H]1O [8-azaadenosine] |  | ADAR inhibition (ADAR): not ADAR inhibitors
5 | Nc1ncnc2c1nc(Cl)n2[C@@H]1O[C@H](CO)[C@@H](O)[C@H]1O [8-chloroadenosine] |  | ADAR inhibition (ADAR): not ADAR inhibitors
6 | N#Cc1ccc(NC(=O)c2nc3c(N)ncnc3[nH]2)cc1 [ADAR1i-123] | did not bind | 
7 | COc1cccc2c1C(=O)c1c(O)c3c(c(O)c1C2=O)C[C@@](O)(C(=O)CO)C[C@@H]3O[C@H]1C[C@H](N)[C@H](O)[C@H](C)O1 [Doxorubicin] |  | Acute apoptosis detected by reduction of FFL activity (HeLa-Nluc-edit cells): induces acute apoptosis
